In patent US6677366B2, “Methods, compositions and articles for reducing or preventing the effects of inflammation” (QLT Inc., priority 1997, dated 2004):

Columns and labels:
filtration bleb [1] = conditions: previous rabbit studies; cited from earlier work
patients [2] = conditions: topical ointment postoperatively; cited from earlier work
bleb scarring = conditions: in vivo; cited from earlier work
patients [3] = conditions: human, in vivo; cited from earlier work
ocular fibroblasts = conditions: cited from earlier work
control eye = assay: Toxicity: control eye examination and adverse events (Example 2); assay type: in vivo, rabbit; conditions: for Fibrin clot within the first four days: resolved without sequelae by end of first week
From the text: (§1) The control eye received the same photosensitizer and irradiation subconjunctivally as the surgical eye, but without a fistula being created. The control eye was used to test toxicity and as a basis for detecting a decrease in IOP for the surgical eye. The time at which the BPD-MA was applied was varied, as follows:
(§2) Postoperatively at day 0 and every two days following surgery, the rabbits were examined with slit lamp biomicroscopy to evaluate filtration bleb extent, filtration bleb height, conjuctival erythema over the bleb, anterior chamber cell flare, and anterior chamber depth. Applanation tonometry to measure IOP following topical anesthesia. A subjective ocular discomfort assessment was also performed by determining animal comfort and eating habits, in accordance with the grading scale shown below:
In FIGS. 3, 4 and 5, a statistical difference was observed between groups (P ,0.001). The bleb height and extent, as well as other slit lamp characteristics, were analyzed by a chi-square test. Adverse events also were analyzed by a chi-square test. A Cox Proportional Hazard Model was used to evaluate for parameters that most accurately predicted filtration bleb survival on each examination day.

filtration bleb [4] = assay: Times of PDT administration, full thickness filtration surgery (Example 2); assay type: in vivo, rabbit
Description: The photosensitizer used in the example was prepared as follows: A liposomally formulated benzoporphyrin derivative, monoacid ring A, BPD-MA or BPD-verteporfin was supplied by QLT PhotoTherapeutics, Inc. as a lyophilized powder and was reconstituted with sterile distilled water shortly before use. The BPD was reconstituted to 1.98 mg/mL was used to saturate the 3 mm cut end of a Weck cell. In control groups, the Weck cell was saturated with basic salt solution (“BSS”).
On day 0, full thickness filtration surgery was performed on one randomly selected eye in 48 rabbits, 12 in each of four groups. In each rabbit, the untreated other eye served as a control. The filtration procedure was performed in the following manner: Each animal was anesthetized with a mixture of ketamine and xylazine. A wire speculum was used to separate the eyelids. […] Following creation of the fornix-based flap, the Weck cell saturated with BPD-MA (or BSS placebo) was placed on the sclera posterior to the limbus where the fistula was to be created. The conjunctiva was draped over the Weck Cell. The Weck cell thus rested between the conjunctiva and sclera, also coming into contact with the episclera and Tenon's capsule, for two minutes. The Weck cell was then removed and the area was irrigated with BSS. Instruments and gloves were also rinsed before entering the eye, and a 1.0 mm trephine was used to enter the anterior chamber.
The conjunctival flap was then secured to the limbus using two 7-0 vicryl sutures. […] The light source was used at a maximum output ([…]), which provided a total dosage of approximately 7.2 J.
A drop of tobramycin was then placed into each eye following surgery. Tobramycin and prednisolone acetate were instilled in both eyes four times a day for one week following surgery.
as §1
BPD treatment at 48 hours post surgery consisted of the application of the 3 mm cut end of a Weck cell saturated with a 2 mg/mL aqueous solution of BPD-MA (or placebo) laid on the conjunctiva over the filtration bleb for two minutes, followed by washing out the excess photosensitizer and exposure to red LED light having a wavelength of 688 nm for one minute.
as §2
Bleb survival was assessed by the extent and height of the bleb and by IOP as compared with the control eye. The degree of the inflammatory response was determined by erythema over the filtration bleb and was scored on a scale of 0-3. Rabbits were terminated when bleb failure was noted, i.e., when the intraocular pressure in the surgical eye equaled that of the control eye and the filtration bleb was flat.

filtration bleb [5] = assay type: in vivo
Description: At day 7, one rabbit from each group and, following bleb failure, two rabbits from each group, were sacrificed to undergo histologic and transmission electron microscopic (“TEM”) analysis. Histologic evaluation was performed after first fixing the cadaver eyes with 10% buffered neutral formalin. The eyes were processed, sectioned, and then stained with hematoxylin and eosin, as well as Masson's Trichrome. The specimens were examined in a masked fashion by an independent observer.
Transmission electron microscopy was performed by fixing tissue samples in 2.5% glutaraldehyde buffered with 0.1 M cacodylate containing 7% sucrose. Tissues were post fixed for one hour with 2% osmium tetroxide and dehydrated through graded alcohol concentrations to 100% ethanol. The 2×5 mm tissue blocks were then infiltrated with catalyzed epoxy resin. Thick sections (0.5 μm) were cut and stained with toluidine blue and examined by light microscopy to determine appropriate areas. Thin section (80 nm) were then cut, picked up on copper grids, and stained with uranyl acetate and lead citrate for TEM evaluation. A Hitachi H7000 transmission electron microscope was used to examine these sections.

filtration bleb [6] = assay: Pilot light dosing of topical BPD-MA PDT during filtration surgery (Example 1); assay type: in vivo, rabbit
Description: Filtration surgery was performed on one eye in six normal rabbits. A Weck cell sponge was saturated with a 2 mg/mL aqueous solution of the photosensitizer benzoporphyrin derivative monoacid ring A (BPD-MA, also known as “BPD-verteporfin”). During surgery, the saturated Weck cell was used to apply BPD-MA topically for two minutes to the sclera and conjunctiva in the surgical field. After washing out the excess drug with BSS, both the sclera and conjunctiva were exposed to red light having a wavelength of about 690 nm, which was delivered by a light emitting diode (“LED”) placed at a distance of about 1 cm from the tissue to be irradiated. Each of the six rabbits used in this experiment received a different dose of light, specifically, 0, 3, 6, 12, 18 and 24 J/cm^2 over a 30-second to 4-minute time period. The treated rabbits were followed for 11-12 days after surgery by determining filtration bleb height, bleb vascularity (indicative of inflammation), and reduction in intraocular pressure (“IOP”). The data obtained on day 5 and day 11 are shown below in Tables 1A and 1B respectively.

[7] = day 7, eyes that received BPD at surgery
[8] = postoperative day 5, irradiation time 30 seconds
[9] = postoperative day 5, irradiation time 1 minute
[10] = postoperative day 5, irradiation time 2 minutes
[11] = postoperative day 5, irradiation time 3 minutes
[12] = postoperative day 11, irradiation time 30 seconds
[13] = postoperative day 11, irradiation time 1 minute
[14] = postoperative day 11, irradiation time 2 minutes
[15] = postoperative day 11, irradiation time 3 minutes

Compound: O=c1[nH]cc(F)c(=O)[nH]1 [5-Fluorouracil]
- Filtration Bleb Survival (mean days ± SD) (filtration bleb [1]): 19.5 ± 5.5 days
- Filtration Bleb Survival [range] (filtration bleb [1]): 14 to 25 days

Compound: Nc1ncnc2c1ncn2[C@@H]1O[C@H](CO)[C@@H](O)[C@@H]1O [Ara-A]
- Filtration Bleb Survival (mean days ± SD) (filtration bleb [1]): 15.2 ± 1.8 days

Compound: N#CCCN [BAPN, Beta-aminopropionitrite]
- Patients with IOP kept below 22 mm Hg (patients [2]): 74%
- Potency in animal studies (bleb scarring): only limited potency

Compound: CC(C)(S)[C@@H](N)C(=O)O [D-penicillamine]
- Potency in animal studies (bleb scarring): only limited potency

Compound: CO[C@@]12[C@H](COC(N)=O)C3=C(C(=O)C(C)=C(N)C3=O)N1C[C@@H]1N[C@@H]12 [Mitomycin-C]
- Filtration Bleb Survival (mean days ± SD) (filtration bleb [1]): 34.8 ± 28.8 days
- Filtration Bleb Survival [range] (filtration bleb [1]): 6 to 23.2 days
- Ocular hypotony (IOP less than 5 or 6 mm Hg), fraction of patients treated (patients [3]): ⅓
- Probability of late-onset bleb leaks (patients [3]): around 25%

Compound: O=c1[nH]c(=O)n([C@H]2C[C@H](O)[C@@H](CO)O2)cc1F [floxuridine]
- Potency relative to fluorouracil in long-term inhibition of ocular fibroblasts (ocular fibroblasts): about 100 times

Compound: Bleomycin
- Filtration Bleb Survival (mean days ± SD) (filtration bleb [1]): 25.5 ± 14.5 days
- Filtration Bleb Survival [range] (filtration bleb [1]): 21 to 50 days

Compound: benzoporphyrin derivative monoacid ring A [BPD-MA]
- Fibrin clot within the first four days (control eye; Group 2): three
- Fibrin clot within the first four days (control eye; Group 3): three
- Adverse events (control eye; all groups): few and not related specifically to the use of the photosensitizer
- Anterior segment ocular exam of control eye, placebo versus BPD-treated (control eye; control eye, P>0.05): no differences between the placebo and BPD-treated eyes
- Inflammatory response (erythema over the bleb) (filtration bleb [4]; BPD and light at relatively low doses, especially during surgery): prevented the development of inflammation
- Bleb survival in comparison with placebo control or treatment only at 48 hours (filtration bleb [4]; BPD and light during surgery (Groups 2 and 4)): prolonged bleb survival
- IOP (ANOVA) (filtration bleb [4]; BPD given intraoperatively, P=0.057): trend toward lower IOP
- Mean (±SD) filtration bleb survival time (filtration bleb [4]; Group 2: BPD treatment during surgery, placebo 48 hours post surgery): 23.8 ± 12 days
- Erythema over the bleb (filtration bleb [4]; Group 3 (BPD only at 48 hours), FIG. 5): higher inflammatory response
- Mean (±SD) filtration bleb survival time (filtration bleb [4]; Group 3: placebo during surgery, BPD treatment 48 hours post surgery): 10.1 ± 9 days
- Effect of second treatment with BPD and light at 48 hours (filtration bleb [4]; Group 4): did not appear to have any additional effect
- Mean (±SD) filtration bleb survival time (filtration bleb [4]; Group 4: BPD treatment during surgery and 48 hours post surgery): 23.2 ± 8 days
- Extent and height of the bleb (filtration bleb [4]; up to 12 days postoperatively, FIG. 3, FIG. 4): indicated the effectiveness of low-dose PDT treatment during surgery
- Filtration bleb survival compared to previous rabbit studies (filtration bleb [4]; versus Table 2 literature values): prolonged the filtration bleb survival compared to normal controls, Ara-A and 5-fluorouracil
- Life of the filtration bleb compared with mitomycin C studies (filtration bleb [4]; versus literature): longer that in some rabbits who received mitomycin C
- Light microscopy of filtering bleb (filtration bleb [5]; day 7, BPD only at day 2 (Group 3)): increased lymph channels in addition to the fibroblasts, but no vascular proliferation
- Light microscopy of filtering bleb: fibroblasts, vessels, lymph channels (filtration bleb [5]; [7]): no fibroblasts, vascular increase or lymphocytic channel increase
- Light microscopy of filtering bleb: lymphocytic response (filtration bleb [5]; [7]): mild lymphocytic response
- Histology of eye fistulas (filtration bleb [5]; end of the study (three weeks postoperatively)): only a few lymphocytes and no proliferation of blood vessels at the fistula
- Epithelium finding (filtration bleb [5]; rabbit, in vivo): thinned epithelium
- Histologic and transmission electron microscopic analysis for toxicity (filtration bleb [5]; surgical or control eye): no evidence of toxicity or inflammation apart from the filtration site
- Survival of the filtration bleb versus light dose (filtration bleb [6]; light doses 0-24 J/cm^2): longest in eyes treated with light at a medium range of doses
- Bleb Height (filtration bleb [6]; [8]): Small
- Bleb Vascularity (filtration bleb [6]; [8]): Vascular
- IOP Decrease (filtration bleb [6]; postoperative day 5, irradiation time 30 seconds, 2 mg/mL topical 2 min, 690 nm light): Minimal
- Bleb Height (filtration bleb [6]; [9]): Maximum
- Bleb Vascularity (filtration bleb [6]; [9]): Avascular
- IOP Decrease (filtration bleb [6]; postoperative day 5, irradiation time 1 minute, 2 mg/mL topical 2 min, 690 nm light): >20 mm Hg
- Bleb Height (filtration bleb [6]; [10]): Maximum
- Bleb Vascularity (filtration bleb [6]; [10]): Avascular'
- IOP Decrease (filtration bleb [6]; postoperative day 5, irradiation time 2 minutes, 2 mg/mL topical 2 min, 690 nm light): 20 mm Hg
- Bleb Height (filtration bleb [6]; [11]): Small
- Bleb Vascularity (filtration bleb [6]; [11]): Vascular
- IOP Decrease (filtration bleb [6]; postoperative day 5, irradiation time 3 minutes, 2 mg/mL topical 2 min, 690 nm light): 2.5 mm Hg
- Bleb Vascularity (filtration bleb [6]; postoperative day 5, irradiation time 4 minutes): Vascular
- IOP Decrease (filtration bleb [6]; postoperative day 5, irradiation time 4 minutes, 2 mg/mL topical 2 min, 690 nm light): 0-4 mm Hg
- Bleb Height (filtration bleb [6]; [12]): Minimal
- Bleb Vascularity (filtration bleb [6]; [12]): Vascular
- IOP Decrease (filtration bleb [6]; [12]): 2.3 mm Hg
- Bleb Height (filtration bleb [6]; [13]): Maximum
- Bleb Vascularity (filtration bleb [6]; [13]): Avascular
- IOP Decrease (filtration bleb [6]; [13]): >20 mm Hg
- Bleb Height (filtration bleb [6]; [14]): Maximum
- Bleb Vascularity (filtration bleb [6]; [14]): Avascular'
- IOP Decrease (filtration bleb [6]; [14]): >20 mm Hg
- Bleb Height (filtration bleb [6]; [15]): Low
- Bleb Vascularity (filtration bleb [6]; [15]): Vascular
- IOP Decrease (filtration bleb [6]; [15]): 3-4 mm Hg
- Bleb outcome (rabbit sacrificed) (filtration bleb [6]; postoperative day 11, irradiation time 4 minutes): bleb failure
